Test results from patent US20230391727A1, “ANALOGUES OF PENTAMIDINE AND METHODS FOR TREATING INFECTIONS” (Auransa Inc., priority 2020, published 2023).
Values after ≈ are worked out from the molar mass of the structure shown. Values joined by “and” are separate entries in the source; they are usually repeats but may differ in a detail not shown here. Identical values can stand only once.

How the values were obtained:
[1] = Anti-fungal MIC assay, summary of second round; assay type: cell-based; conditions: read-out: Isolate MIC (100%); range over isolates of the second round of testing
Experimental: (§1) The first round of testing included Candida parapsilosis, Candida krusei, Paecilomyces variotii, Candida albicans, Aspergillus fumigatus, and Blastomyces dermatitidis. […] The second round of testing included Candida parapsilosis, Candida krusei, Candida albicans, Candida auris, Candida glabrata, Candida guilliermondii, and Cryptococcus neoformans.
(§2) Stock solutions of the investigational agent were prepared at concentrations 100-times the highest concentration to be tested (6400 μg/ml) using dimethyl sulfoxide. Aliquots of the stock solutions were dispensed into polystyrene vials and stored at −20° C.
(§3) The synthetic medium RPMI-1640 (with glutamine, without bicarbonate, and with phenol red) was used. The RPMI was buffered to a pH of 7.0+0.1 at 25° C. with 0.165M MOPS (3-[N-morpholino] propanesulfonic acid). Sterile U-shaped 96-well cell culture plates were used to perform the MIC assays. […]
(§4) Fungal isolates were grown on Sabouraud dextrose agar (yeasts) or potato flake agar (filamentous fungi) and cells were collected after an appropriate period of growth for each species being evaluated (e.g., 48-72 hours for yeasts and 7 days for filamentous fungi). The fungi were suspended in sterile distilled water, and the densities of the fungal suspension were read using a spectrophotometer and adjusted to an appropriate optical density specific for each fungal species. […]

[2] = tested on: Candida parapsilosis, Candida krusei, Candida albicans, Candida auris, Candida glabrata, Candida guilliermondii, and Cryptococcus neoformans; assay: Anti-fungal MIC assay, summary of second round; assay type: cell-based; conditions: Candida strains
Experimental: as §1, §2, §3, §4

[3] = tested on: A. baumannii ATCC 17978; assay: Checkerboard assay with novobiocin (FIGS. 2, 3, 5, 6); assay type: cell-based, Acinetobacter baumannii
From the text: Novobiocin is an anti-staphylococcal drug, but with limited use. The oral form of novobiocin drug has since been withdrawn from the market due to lack of efficacy. This antibiotic is often used to treat Staphylococcus aureus infection, particularly methicillin resistant S. aureus “MRSA”.

[4] = tested on: human primary hepatocytes; assay: alamarBlue cell viability, cytotoxicity in hepatocytes; assay type: cell-based; conditions: 24 hours
Experimental: Compound 3 was tested for cytotoxicity in human primary hepatocytes in duplicate at 8 concentrations ranging from 0.03 μM to 100 μM (0.013 μg/ml to 44.95 μg/ml ).
This assay was performed using cryopreserved human primary hepatocytes (PHH). The cryopreserved PHH were seeded in collagen I coated 96-well plates in plating medium. The medium was replaced with incubation medium 2-4 hours after seeding. After overnight culture, test compound (compound 3) (0.03, 0.1, 0.3, 1, 3, 10, 30, 100 μM), reference compound (chlorpromazine) and vehicle control (1% DMSO) were added, and incubated with the cells for 24 hours followed by the addition of the alamarBlue cell viability reagent. The plates are analyzed for fluorescent intensity after alamarBlue addition. % of cell viability (% of control) was calculated by comparing the background (wells without cells) corrected fluorescent intensity in the compound treated wells and vehicle control treated wells. IC50 values were determined by non-linear regression analysis of the concentration-response curves using the Hill equation. Testing was done in duplicate.

## N=C(N)c1ccc(CC[C@H]2CCC[C@@H](CCc3ccc(C(=N)N)cc3)C2)cc1 [Compound 3, 4,4′-(2,2′-((1R,3S)-cyclohexane-1,3-diyl)bis(ethane-2,1-diyl))dibenzimidamide]
[1]
  MIC: 0.5 to 8 µg/mL (≈ 1.33 to 21.2 µM)
[2]
  anti-fungal effectiveness compared to fluconazole: more effective in killing several Candida strains of interest that are not affected by fluconazole
[3]
  synergistic effect with novobiocin: clear synergistic effect
  synergy with novobiocin as compared to pentamidine with novobiocin: superior synergy
[3]; Acinetobacter baumannii, ATCC17978, substance alone
  MIC: 33.2 µM
[4]; 10 μM (4.49 μg/ml) and lower concentrations
  effect on cell viability: No inhibition on cell viability
[4]; 30 uM and 100 μM (13.48 μg/ml and 44.95 μg/ml)
  effect on cell viability: significant effects on cell viability
[4]; Hepatocyte, human primary hepatocytes
  IC50: 25 µM and 11.2 µg/mL
